Measured values taken from CN103330941A, “一种紫杉醇注射剂的药物组合物” (Individual, priority 2013, dated 2013).

Legend:
[1] = cited from earlier work
[2] = in the human body; cited from earlier work
[3] = Experiment 2, formulation screening: dissolution of paclitaxel; format: physicochemical

Compound | solubility in organic solvents (in words) ([1]; methanol, ethanol or chloroform) | solubility in water (in words) ([1]; water) | effective bioavailability [2] | solubilizing (hydrotropic) effect on paclitaxel ([3]; alone) | solubilizing (hydrotropic) effect on paclitaxel ([3]; used together with 1,2-propanediol)
CC(=O)O[C@H]1C(=O)[C@@]2(C)[C@H]([C@H](OC(=O)c3ccccc3)[C@]3(O)C[C@H](OC(=O)[C@H](O)[C@@H](NC(=O)c4ccccc4)c4ccccc4)C(C)=C1C3(C)C)[C@]1(OC(C)=O)CO[C@@H]1C[C@@H]2O [紫杉醇, 5β,20-环氧-1,2α,4,7β,10β,13α-六羟基紫杉烷-11-烯-9-酮-4,10-二乙酸酯-2-苯甲酸酯-13[(2’R,3’S)-N-苯甲酰-3-苯基异丝氨酸酯]] | 溶解 | 几乎不溶 | 低 | – | –
CC(=O)Oc1ccccc1C(=O)[O-].[Na+] [乙酰水杨酸钠] | – | – | – | 具有助溶作用 | 具有增加的助溶作用
